This note sets out measurements from patent US20250042887A1, “GLYCOGEN SYNTHASE KINASE-3 (GSK3) INHIBITOR COMPOUNDS FOR USE AS ANTIVIRAL AGENTS” (priority 2021, published 2025).

Data set [1] is described as follows: in vitro. The note with it: human.
Data set [2] deals with SARS-CoV-2 Spike S1 protein expression. The data set is classed as cell-based.
The subject of data set [3] is SARS-CoV-2. Briefly: Dose-response inhibition in three SARS-CoV-2 infected immortalized cell lines (Huh-7.5.1, Caco-2, Calu-3). The data set is classed as cell-based. To be noted: Severe acute respiratory syndrome coronavirus 2; Huh-7.5.1, Caco-2 and Calu-3 cells; read-out: ED50 in all investigated cell lines.
In data set [4] the test system is SARS-CoV-2. Briefly: SARS-CoV-2 infected primary donor-derived colon organoids, intracellular N protein. The data set is classed as cell-based. The note with it: donor intestinal organoids monolayer, 72-hours post infection, dose-dependent.
Data set [5] concerns HCoV-229E. The data set is classed as cell-based, human coronavirus 229E (HCoV-229E).
In data set [6] the test system is SARS-CoV-2. Briefly: Viral titer released from 48-hour SARS-CoV-2 infected Calu-3 cells. The data set is classed as cell-based. To be noted: 48 hours after infection, 100 μM.
The subject of data set [7] is SARS-CoV-2. Briefly: Dose-response of SARS-CoV-2 viral load (intracellular N protein) in Huh-7.5.1 cells. Type of data set: cell-based.
The test system of data set [8] is SARS-CoV-2. Briefly: High-content screen of GSK3β-focused library in SARS-CoV-2 infected Huh-7.5.1 cells (dsRNA or nucleocapsid). Type of data set: cell-based. To be noted: Severe acute respiratory syndrome coronavirus 2, single dose of 10 μM, Huh-7.5.1 cells.
In data set [9] the test system is HCoV-229E. Briefly: Dose-response of HCoV-229E viral load (dsRNA) in Huh-7.5.1 cells. Type of data set: cell-based, human coronavirus 229E (HCoV-229E). To be noted: Human coronavirus 229E, read-out: ED50 (HCoV-229E).
In data set [10] the test system is HCoV-229E. Kind of data set: High-content screen of GSK3β-focused library in HCoV-229E infected Huh-7.5.1 cells (intracellular dsRNA). Type of data set: cell-based, human coronavirus 229E (HCoV-229E). To be noted: Human coronavirus 229E, single dose of 10 μM, Z′ 0.7.
Data set [11] concerns Huh-7.5.1 cells. To be noted: single dose of 10 μM.
Procedure: High content screening methodology and parameters. Monitoring of the total number of cells (based on nuclei staining) and number of virus infected cells (based on dsRNA and Nucleocapsid staining) was performed using the CellInsight CX7™ High Content Screening platform (Thermo Fisher™), as previously described (33042061). Shortly, nuclei are identified and counted using the 350′461 nm wavelength (Hoechst 33342™); cell debris and other particles are deducted based on a size filter tool. A Region of Interest (ROI, or “circle”) is then drawn around each host cell and validated against the bright field image to correspond with host cell membranes. The ROI encompasses the “spots”, where dsRNA (485/521 nm wavelength) and SARS-CoV-2 nucleocapsid (533/588 nm wavelength) are localized. Finally, the software (HCS Studio Cell Analysis Software™, version 4.0) identifies, counts and measures the pixel area and intensity of the spots within each circle. The fluorescent spot area measured within each cell (circle) is then added and quantified for each well. The total circle spot intensity of each well corresponds to the viral load, and is normalized to non-infected cells, and to cells infected with no compound. Nuclei stain (Hoechst 33342™) was used to quantify cell loss (due to cytotoxicity or loss of adherence), and to normalize the changes in viral load resulting from a decrease in cell numbers.
In data set [12] the target is T1, glycogen synthase kinase-3-beta (Homo sapiens, UniProt P49841).
T1 construct: GST; purchased SignalChem Go9-10G
T1 sequence (P49841 whole entry): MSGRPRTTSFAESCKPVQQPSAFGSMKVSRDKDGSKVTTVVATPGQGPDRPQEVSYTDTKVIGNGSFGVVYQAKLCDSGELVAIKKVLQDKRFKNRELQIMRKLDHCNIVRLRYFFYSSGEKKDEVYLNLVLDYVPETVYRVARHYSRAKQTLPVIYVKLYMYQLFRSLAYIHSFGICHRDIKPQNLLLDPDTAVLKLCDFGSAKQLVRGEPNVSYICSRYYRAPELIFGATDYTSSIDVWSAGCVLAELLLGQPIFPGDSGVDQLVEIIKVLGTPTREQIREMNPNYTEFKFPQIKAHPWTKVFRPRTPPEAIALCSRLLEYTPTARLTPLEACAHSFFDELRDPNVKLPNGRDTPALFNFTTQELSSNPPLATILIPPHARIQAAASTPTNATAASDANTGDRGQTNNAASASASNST
Briefly: In vitro phosphorylation of nucleocapsid peptides, ADP-Glo, GSK3b. The note with it: for Relative Phosphorylation to No Kinase Control, GSK3b: Mean ± S.Dev. (n = 3), no kinase control = 100; for Relative Phosphorylation to Autophosphorylation Control (set at 100), GSK3b: peptide ~250 μM, 250 μM ATP, 30 min at 30° C., duplicate measurements. Type of data set: biochemical. On the technique in general: ADP-Glo turns the ADP formed in a reaction into a luminescent signal.

The target of data set [13] is T2, casein kinase 1-delta (Homo sapiens, UniProt P48730).
T2 construct: GST; purchased SignalChem C65-10G
T2 sequence (P48730 whole entry): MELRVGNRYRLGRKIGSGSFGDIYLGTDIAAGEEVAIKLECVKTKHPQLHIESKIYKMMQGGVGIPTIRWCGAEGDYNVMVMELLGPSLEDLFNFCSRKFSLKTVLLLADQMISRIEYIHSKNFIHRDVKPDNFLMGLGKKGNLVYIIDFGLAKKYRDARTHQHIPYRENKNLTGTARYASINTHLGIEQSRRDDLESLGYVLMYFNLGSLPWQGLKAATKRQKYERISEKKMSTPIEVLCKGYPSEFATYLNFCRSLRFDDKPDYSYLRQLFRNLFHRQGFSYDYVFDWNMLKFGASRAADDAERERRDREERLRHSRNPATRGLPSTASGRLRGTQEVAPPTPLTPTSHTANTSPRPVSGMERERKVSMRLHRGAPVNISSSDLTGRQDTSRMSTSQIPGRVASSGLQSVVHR
Kind of data set: In vitro phosphorylation of nucleocapsid peptides, ADP-Glo, CK1d. Type of data set: biochemical. To be noted: peptide ~250 μM, 250 μM ATP, 30 min at 30° C.; duplicate measurements.

The target of data set [14] is T3, casein kinase 1-gamma-1 (CK1γ1) (Homo sapiens, UniProt Q9HCP0).
T3 construct: GST; purchased SignalChem C68-11G
T3 sequence (Q9HCP0 whole entry): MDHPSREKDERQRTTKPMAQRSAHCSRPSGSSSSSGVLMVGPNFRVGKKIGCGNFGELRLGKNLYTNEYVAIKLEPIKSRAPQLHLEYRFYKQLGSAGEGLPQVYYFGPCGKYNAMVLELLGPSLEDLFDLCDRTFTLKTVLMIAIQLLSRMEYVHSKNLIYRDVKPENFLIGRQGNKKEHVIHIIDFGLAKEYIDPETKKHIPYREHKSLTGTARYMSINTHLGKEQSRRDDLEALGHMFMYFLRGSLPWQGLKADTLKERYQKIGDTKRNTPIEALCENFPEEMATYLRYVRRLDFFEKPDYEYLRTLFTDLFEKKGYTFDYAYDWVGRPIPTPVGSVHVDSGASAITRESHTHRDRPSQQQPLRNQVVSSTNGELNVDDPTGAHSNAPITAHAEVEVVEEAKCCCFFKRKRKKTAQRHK
Kind of data set: In vitro phosphorylation of nucleocapsid peptides, ADP-Glo, CK1g1. Type of data set: biochemical. The note with it: peptide ~250 μM, 250 μM ATP, 30 min at 30° C.; duplicate measurements.

The target of data set [15] is T4, protein kinase C-alpha (PKC α) (Homo sapiens, UniProt P17252).
T4 construct: GST; purchased SignalChem P61-18G
Briefly: In vitro phosphorylation of nucleocapsid peptides, ADP-Glo, PKCa. Type of data set: biochemical. The note with it: Mean ± S.Dev. (n = 3); no kinase control = 100.

For data set [16], the target named is cAMP-dependent protein kinase catalytic subunit-alpha (PKACa) (Homo sapiens, UniProt P17612). Briefly: In vitro phosphorylation of nucleocapsid peptides, ADP-Glo, PKACa. Type of data set: biochemical. The note with it: peptide ~250 μM, 250 μM ATP, 30 min at 30° C.; duplicate measurements.
For data set [17], the target named is T5, extracellularly-regulated kinase-1 (ERK1) (Homo sapiens, UniProt P27361).
T5 construct: GST; purchased SignalChem M29-10G
T5 sequence (P27361 whole entry): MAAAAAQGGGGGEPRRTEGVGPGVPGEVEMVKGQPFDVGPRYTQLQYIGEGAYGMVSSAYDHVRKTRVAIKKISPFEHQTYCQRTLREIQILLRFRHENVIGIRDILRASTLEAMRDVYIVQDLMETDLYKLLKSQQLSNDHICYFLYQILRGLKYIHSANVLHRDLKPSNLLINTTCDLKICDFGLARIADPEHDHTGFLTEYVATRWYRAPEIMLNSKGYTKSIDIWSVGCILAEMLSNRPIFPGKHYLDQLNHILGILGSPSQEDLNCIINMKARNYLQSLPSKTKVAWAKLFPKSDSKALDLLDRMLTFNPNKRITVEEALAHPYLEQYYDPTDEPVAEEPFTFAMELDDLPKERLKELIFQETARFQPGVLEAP
Kind of data set: In vitro phosphorylation of nucleocapsid peptides, ADP-Glo, ERK1. To be noted: peptide ~250 μM, 250 μM ATP, 30 min at 30° C.; duplicate measurements. The data set is classed as biochemical.

For data set [18], the target named is cyclin-dependent kinase 2/cyclin A2 (CDK2/A2) (Homo sapiens, UniProt P24941). Briefly: In vitro phosphorylation of nucleocapsid peptides, ADP-Glo, CDK2/cyclin A2. The data set is classed as biochemical. To be noted: peptide ~250 μM, 250 μM ATP, 30 min at 30° C.; duplicate measurements.
Data set [19] deals with PKCa + GSK3b. Kind of data set: In vitro phosphorylation of nucleocapsid peptides, ADP-Glo, PKCa + GSK3b combined. Type of data set: biochemical, human. To be noted: Mean ± S.Dev. (n = 3); no kinase control = 100.

Entries after “also recorded” stand apart in the source; their conditions may differ. Where two headings read alike, the source gives them in different places. Where no end group is shown, it is not given here. [ ]: non-standard residue; d: D form. pS = N[C@@H](COP(=O)(O)O)C(=O)O

Compound `CSc1ccc(-n2cnc3ccc(-c4nnc(CCc5cccc(C#N)c5)o4)cc32)cc1` [Compound P-0717632] gave a CC50 in [1] of over 100 µM. The “Spike S1 protein expression” value in data set [2] is listed as “blocked; also recorded: reduced”. Besides, the EC50 was 4 to 7 µM in data set [3]; about 3000 nM in [7] (Severe acute respiratory syndrome coronavirus 2, Huh-7.5.1, Huh-7.5.1 cells, intracellular N protein, read-out: ED50 (SARS-CoV-2)); about 3000 nM in [9]. For the same compound, the “effect on intracellular N protein levels in organoids” value in [4] is recorded as “greatly decrease intracellular N protein levels”. Also, the “average Combination Index (CI)” value in data set [5] is recorded as 0.7. For the same compound, in [6], the “reduction of release of infective particles” value was found to be 2 log. The “SARS-CoV-2 Selectivity Index SI (CC50 over ED50)” value in [7] (Huh 7.5.1 cells) turned out to be 68. In data set [7] (SARS-CoV-2 infected Huh-7.5.1 cells), this compound showed an ED80 of 10 µM. Besides, the inhibition at 10 µM was 68.2% in data set [8] (Z′ 0.3, read-out: SARS-CoV-2 inhibition (% dsRNA)); 79.3% in data set [8] (average of screens 1 and 2, read-out: Average SARS-CoV-2 Nucleocapsid inhibition); 75.2% in data set [8] (screen 1, Z′ 0.7, read-out: SARS-CoV-2 inhibition (% Nucleocapsid) 1); 83.3% in data set [8] (screen 2, Z′ 0.5, read-out: SARS-CoV-2 inhibition (% Nucleocapsid) 2); 97.6% in data set [10]. In [11], the “Average cell loss (%)” value came to 24.4%.

As for “RNSTPGSSRGT(pS)PAR (RNSTPGSSRGT[pS]PAR) [SCV2-N [195-209]-pS206, synthetic peptide modeled after SARS-CoV-2 nucleocapsid protein phosphorylation sites, pre-phosphorylated at S206]”, in data set [12], the “Relative Phosphorylation to No Kinase Control, GSK3b” value is on record as 24,082 ± 381 and the “Relative Phosphorylation to Autophosphorylation Control (set at 100), GSK3b” value stood at 1068. Besides, the “Relative Phosphorylation to Autophosphorylation Control (set at 100), CK1d” value in data set [13] turned out to be 105. Moreover, in [14], the “Relative Phosphorylation to Autophosphorylation Control (set at 100), CK1g1” value came out at 105. For the same compound, the “Relative Phosphorylation to No Kinase Control, PKCa” value in data set [15] came to 1531 ± 47. For the same compound, the “Relative Phosphorylation to Autophosphorylation Control (set at 100), PKACa” value in data set [16] is 205. Moreover, the “Relative Phosphorylation to Autophosphorylation Control (set at 100), ERK1” value in data set [17] amounted to 100. Besides, in data set [18], the “Relative Phosphorylation to Autophosphorylation Control (set at 100), CDK2 + Cyclin A2” value was found to be 100.

With “RNSTPGSSRGTSPAR [SCV2-N [195-209], synthetic peptide modeled after SARS-CoV-2 nucleocapsid protein phosphorylation sites]”, in [12], the “Relative Phosphorylation to No Kinase Control, GSK3b” value came to 3291 ± 57 and the “Relative Phosphorylation to Autophosphorylation Control (set at 100), GSK3b” value turned out to be 137. In addition, the “Relative Phosphorylation to Autophosphorylation Control (set at 100), CK1d” value in [13] was determined as 101. In addition, in data set [14], the “Relative Phosphorylation to Autophosphorylation Control (set at 100), CK1g1” value is on record as 104. In addition, in data set [15], the “Relative Phosphorylation to No Kinase Control, PKCa” value came out at 3301 ± 114. The “Relative Phosphorylation to No Kinase Control, PKCa + GSK3b” value in data set [19] was 4262 ± 27. For the same compound, the “Relative Phosphorylation to Autophosphorylation Control (set at 100), PKACa” value in data set [16] worked out at 151. Besides, the “Relative Phosphorylation to Autophosphorylation Control (set at 100), ERK1” value in data set [17] came out at 102. For the same compound, in data set [18], the “Relative Phosphorylation to Autophosphorylation Control (set at 100), CDK2 + Cyclin A2” value is 104.

As usually defined, the inhibition is how much of the control response was suppressed.
